The source of these data is ChEMBL document CHEMBL3991601, “The target landscape of clinical kinase drugs” (Science, 2017).

The source made the active and inactive calls. Rule as the data show it, for most assays here: actives have a measured Kd and inactives only a lower limit.

Assay [1] deals with Cyclin-dependent kinase 13 (Homo sapiens, UniProt Q14004).
Assay [2] has as its target T1, Serine/threonine-protein kinase Chk1 (Homo sapiens, UniProt O14757).
T1 sequence (O14757 whole entry): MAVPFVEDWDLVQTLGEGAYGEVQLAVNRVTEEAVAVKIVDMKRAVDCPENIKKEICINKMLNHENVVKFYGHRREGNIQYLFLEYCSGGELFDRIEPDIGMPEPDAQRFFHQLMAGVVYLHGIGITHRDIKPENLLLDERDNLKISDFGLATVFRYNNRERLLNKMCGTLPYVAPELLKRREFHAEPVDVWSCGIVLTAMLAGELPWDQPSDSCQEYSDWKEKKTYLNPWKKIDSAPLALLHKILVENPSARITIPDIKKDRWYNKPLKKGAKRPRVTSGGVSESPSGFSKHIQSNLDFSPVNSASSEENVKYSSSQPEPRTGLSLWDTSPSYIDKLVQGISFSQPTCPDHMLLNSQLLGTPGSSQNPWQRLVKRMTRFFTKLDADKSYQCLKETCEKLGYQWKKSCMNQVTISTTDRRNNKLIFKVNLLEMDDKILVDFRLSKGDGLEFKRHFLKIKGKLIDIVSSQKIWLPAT

Assay [3] deals with DNA topoisomerase 2-alpha (Homo sapiens, UniProt P11388).
Chain of DNA topoisomerase 2-alpha (P11388 whole entry): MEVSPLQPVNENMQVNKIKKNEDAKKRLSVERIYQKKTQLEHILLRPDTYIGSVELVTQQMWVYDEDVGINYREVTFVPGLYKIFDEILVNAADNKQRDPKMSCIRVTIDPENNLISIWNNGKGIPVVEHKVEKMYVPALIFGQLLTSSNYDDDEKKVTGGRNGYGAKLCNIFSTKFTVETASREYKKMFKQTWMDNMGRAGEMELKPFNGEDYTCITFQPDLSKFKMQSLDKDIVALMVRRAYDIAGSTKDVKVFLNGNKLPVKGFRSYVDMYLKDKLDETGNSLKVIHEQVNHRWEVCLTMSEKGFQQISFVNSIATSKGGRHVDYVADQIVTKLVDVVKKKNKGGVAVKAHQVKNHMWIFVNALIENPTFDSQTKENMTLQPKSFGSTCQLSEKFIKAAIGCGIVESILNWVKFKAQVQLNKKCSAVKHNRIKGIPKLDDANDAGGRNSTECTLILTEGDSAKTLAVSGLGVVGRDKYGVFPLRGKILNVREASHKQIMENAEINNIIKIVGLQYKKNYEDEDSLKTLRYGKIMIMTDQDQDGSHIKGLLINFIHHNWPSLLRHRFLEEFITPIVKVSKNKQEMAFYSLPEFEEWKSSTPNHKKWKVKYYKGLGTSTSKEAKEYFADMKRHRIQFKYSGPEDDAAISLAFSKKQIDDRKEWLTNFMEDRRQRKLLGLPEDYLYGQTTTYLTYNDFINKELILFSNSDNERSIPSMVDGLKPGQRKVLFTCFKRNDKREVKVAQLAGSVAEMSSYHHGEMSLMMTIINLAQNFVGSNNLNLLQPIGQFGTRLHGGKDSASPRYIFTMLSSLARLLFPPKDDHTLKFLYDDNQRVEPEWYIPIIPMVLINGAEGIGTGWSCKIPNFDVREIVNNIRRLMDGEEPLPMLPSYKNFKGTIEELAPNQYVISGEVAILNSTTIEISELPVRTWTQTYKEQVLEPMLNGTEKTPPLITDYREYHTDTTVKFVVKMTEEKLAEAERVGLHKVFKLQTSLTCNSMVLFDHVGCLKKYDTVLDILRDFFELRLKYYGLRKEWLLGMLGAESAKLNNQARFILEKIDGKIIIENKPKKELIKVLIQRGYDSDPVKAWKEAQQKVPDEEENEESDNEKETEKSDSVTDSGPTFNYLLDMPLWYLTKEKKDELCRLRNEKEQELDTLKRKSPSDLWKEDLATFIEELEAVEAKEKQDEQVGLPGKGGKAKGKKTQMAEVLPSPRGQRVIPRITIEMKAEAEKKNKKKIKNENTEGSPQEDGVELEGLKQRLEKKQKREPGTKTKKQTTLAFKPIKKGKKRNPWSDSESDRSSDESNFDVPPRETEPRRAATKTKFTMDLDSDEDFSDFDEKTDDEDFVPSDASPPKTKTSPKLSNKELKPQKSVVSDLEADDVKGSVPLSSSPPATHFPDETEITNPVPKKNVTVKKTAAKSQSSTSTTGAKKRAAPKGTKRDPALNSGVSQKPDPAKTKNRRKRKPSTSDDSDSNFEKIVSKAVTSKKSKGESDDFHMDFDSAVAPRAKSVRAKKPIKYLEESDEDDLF
The target of assay [4] is Protein kinase C beta type (Homo sapiens, UniProt P05771).
Chain of Protein kinase C beta type (P05771 whole entry): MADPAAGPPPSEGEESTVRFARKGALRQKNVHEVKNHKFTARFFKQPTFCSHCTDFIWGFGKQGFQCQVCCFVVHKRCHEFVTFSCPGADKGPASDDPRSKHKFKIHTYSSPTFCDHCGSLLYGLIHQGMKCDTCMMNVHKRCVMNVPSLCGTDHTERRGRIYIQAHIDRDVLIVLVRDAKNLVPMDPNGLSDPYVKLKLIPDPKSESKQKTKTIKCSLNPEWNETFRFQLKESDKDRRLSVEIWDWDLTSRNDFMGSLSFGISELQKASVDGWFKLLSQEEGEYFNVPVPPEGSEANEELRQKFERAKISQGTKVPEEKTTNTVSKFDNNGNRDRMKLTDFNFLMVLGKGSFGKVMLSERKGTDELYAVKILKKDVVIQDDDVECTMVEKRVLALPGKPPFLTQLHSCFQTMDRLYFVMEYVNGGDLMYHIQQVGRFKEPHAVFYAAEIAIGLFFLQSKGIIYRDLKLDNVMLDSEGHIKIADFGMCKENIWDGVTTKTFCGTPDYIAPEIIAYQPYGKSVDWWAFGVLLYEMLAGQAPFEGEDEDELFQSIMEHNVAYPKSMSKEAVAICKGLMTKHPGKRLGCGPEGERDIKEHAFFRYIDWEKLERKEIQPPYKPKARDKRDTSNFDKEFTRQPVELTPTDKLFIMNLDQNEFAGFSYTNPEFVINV
The target of assay [5] is T2, RNA cytidine acetyltransferase (Homo sapiens, UniProt Q9H0A0).
T2 sequence (Q9H0A0 whole entry): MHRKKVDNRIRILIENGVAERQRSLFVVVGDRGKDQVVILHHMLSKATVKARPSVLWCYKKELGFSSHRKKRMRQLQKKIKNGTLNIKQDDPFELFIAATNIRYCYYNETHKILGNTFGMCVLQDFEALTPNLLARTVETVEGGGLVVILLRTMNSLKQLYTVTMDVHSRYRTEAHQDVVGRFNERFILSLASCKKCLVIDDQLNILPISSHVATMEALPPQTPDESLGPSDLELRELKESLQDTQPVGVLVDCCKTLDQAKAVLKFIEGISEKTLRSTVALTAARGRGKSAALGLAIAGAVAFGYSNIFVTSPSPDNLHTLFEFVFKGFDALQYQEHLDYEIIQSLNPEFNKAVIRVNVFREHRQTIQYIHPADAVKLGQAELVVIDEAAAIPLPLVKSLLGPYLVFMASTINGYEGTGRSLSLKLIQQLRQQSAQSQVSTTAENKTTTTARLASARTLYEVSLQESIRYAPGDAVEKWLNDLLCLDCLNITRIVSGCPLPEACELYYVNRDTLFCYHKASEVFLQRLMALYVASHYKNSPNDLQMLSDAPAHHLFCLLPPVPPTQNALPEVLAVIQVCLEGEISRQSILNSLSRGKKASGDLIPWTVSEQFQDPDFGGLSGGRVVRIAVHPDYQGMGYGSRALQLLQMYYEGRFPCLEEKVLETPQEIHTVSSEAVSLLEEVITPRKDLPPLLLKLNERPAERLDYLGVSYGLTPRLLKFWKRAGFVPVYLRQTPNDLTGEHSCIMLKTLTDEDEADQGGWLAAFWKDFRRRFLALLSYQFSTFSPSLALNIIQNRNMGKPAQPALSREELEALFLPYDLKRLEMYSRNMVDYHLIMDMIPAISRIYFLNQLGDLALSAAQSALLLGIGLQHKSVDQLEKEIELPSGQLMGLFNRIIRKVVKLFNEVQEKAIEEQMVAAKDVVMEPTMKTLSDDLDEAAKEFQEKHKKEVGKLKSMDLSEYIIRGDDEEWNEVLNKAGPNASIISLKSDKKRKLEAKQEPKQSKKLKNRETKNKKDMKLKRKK

Assay [6] addresses Tyrosine-protein kinase BTK (Homo sapiens, UniProt Q06187).
The target of assay [7] is T3, Serine/threonine-protein kinase 3 (Homo sapiens, UniProt Q13188).
T3 sequence (Q13188 whole entry): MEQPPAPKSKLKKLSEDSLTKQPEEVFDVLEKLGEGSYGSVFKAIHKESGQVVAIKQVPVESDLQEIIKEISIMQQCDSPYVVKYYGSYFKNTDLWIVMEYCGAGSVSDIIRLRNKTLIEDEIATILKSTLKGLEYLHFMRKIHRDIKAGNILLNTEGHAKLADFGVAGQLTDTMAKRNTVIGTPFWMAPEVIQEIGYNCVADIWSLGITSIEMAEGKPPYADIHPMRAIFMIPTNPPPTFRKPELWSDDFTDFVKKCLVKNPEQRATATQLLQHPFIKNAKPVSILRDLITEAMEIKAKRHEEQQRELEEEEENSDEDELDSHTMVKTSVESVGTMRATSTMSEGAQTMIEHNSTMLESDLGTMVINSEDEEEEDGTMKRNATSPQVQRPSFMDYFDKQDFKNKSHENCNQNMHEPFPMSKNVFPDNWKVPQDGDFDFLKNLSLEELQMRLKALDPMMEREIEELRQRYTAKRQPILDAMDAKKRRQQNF

A further assay concerns the target Activin receptor type-2B (Homo sapiens, UniProt Q13705).
The next assay deals with Ephrin type-A receptor 2 (Homo sapiens, UniProt P29317).
Chain of Ephrin type-A receptor 2 (P29317 whole entry): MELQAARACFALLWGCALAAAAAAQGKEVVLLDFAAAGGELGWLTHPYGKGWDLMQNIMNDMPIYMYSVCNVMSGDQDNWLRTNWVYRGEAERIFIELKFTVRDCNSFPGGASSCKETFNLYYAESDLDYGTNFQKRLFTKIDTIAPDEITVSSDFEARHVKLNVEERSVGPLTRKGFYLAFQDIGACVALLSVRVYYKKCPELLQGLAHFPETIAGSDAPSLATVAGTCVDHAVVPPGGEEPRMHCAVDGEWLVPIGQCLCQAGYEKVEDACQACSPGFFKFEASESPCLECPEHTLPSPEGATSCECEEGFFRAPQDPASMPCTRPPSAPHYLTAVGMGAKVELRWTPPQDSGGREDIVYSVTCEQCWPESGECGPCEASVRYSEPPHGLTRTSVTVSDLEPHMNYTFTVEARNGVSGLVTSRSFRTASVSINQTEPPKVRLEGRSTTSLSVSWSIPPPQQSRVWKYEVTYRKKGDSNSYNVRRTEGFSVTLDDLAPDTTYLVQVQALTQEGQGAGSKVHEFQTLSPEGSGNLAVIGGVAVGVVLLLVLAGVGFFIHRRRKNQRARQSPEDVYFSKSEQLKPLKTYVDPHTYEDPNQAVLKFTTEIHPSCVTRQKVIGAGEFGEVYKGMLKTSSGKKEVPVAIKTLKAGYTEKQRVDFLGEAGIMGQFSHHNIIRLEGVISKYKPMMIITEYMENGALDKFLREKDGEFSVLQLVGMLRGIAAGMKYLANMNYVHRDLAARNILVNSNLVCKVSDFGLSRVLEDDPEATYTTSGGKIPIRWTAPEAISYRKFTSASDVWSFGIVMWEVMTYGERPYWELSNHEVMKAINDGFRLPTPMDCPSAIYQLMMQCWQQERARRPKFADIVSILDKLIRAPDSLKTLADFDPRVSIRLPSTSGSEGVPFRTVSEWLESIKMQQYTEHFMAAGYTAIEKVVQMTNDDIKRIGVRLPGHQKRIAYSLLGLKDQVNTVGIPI
Also: in the data inactive means no Kd found up to 30 µM.

Chain of Activin receptor type-2B (Q13705 whole entry): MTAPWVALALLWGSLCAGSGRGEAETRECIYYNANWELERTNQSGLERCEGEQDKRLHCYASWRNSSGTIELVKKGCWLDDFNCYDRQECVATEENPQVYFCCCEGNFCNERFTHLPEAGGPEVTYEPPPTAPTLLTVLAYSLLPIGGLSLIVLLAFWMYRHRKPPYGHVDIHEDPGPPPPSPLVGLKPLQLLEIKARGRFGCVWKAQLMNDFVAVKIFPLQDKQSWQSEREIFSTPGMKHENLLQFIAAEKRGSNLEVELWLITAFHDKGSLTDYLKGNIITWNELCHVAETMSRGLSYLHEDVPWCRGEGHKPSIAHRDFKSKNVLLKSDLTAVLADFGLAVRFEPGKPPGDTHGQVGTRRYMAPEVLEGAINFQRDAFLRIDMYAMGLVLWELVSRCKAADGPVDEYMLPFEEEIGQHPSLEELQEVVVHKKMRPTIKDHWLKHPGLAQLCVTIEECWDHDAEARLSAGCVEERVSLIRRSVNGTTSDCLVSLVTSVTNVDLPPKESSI
Chain of Tyrosine-protein kinase BTK (Q06187 whole entry): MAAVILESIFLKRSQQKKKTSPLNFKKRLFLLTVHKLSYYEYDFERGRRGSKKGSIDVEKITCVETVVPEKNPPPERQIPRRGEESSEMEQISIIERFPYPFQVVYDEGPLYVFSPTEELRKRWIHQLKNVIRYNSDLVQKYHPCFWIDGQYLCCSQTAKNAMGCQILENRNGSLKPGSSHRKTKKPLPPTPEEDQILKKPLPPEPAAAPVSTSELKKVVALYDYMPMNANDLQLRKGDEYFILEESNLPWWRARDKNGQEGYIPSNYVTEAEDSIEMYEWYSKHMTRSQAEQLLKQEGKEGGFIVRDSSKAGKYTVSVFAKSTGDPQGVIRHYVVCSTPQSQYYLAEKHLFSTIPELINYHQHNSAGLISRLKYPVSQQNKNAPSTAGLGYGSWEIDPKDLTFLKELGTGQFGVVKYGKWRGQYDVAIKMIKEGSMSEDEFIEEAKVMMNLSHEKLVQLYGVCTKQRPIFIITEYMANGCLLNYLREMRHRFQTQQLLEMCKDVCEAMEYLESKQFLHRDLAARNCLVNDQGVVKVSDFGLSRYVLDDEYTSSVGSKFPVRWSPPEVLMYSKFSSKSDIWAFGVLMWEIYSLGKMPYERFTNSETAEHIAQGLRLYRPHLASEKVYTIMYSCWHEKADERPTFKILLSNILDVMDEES

Consider `COc1cc2nccc(Oc3ccc(NC(=O)Nc4cc(C)on4)c(Cl)c3)c2cc1OC` [TIVOZANIB], for which the Kd in assay [1], in [2], in assay [3], in assay [4], in assay [5] and in [6] was > 30 µM (inactive) each time. In addition, the Kd in assay [7] is > 30 µM (inactive); at Activin receptor type-2B, > 30 µM (inactive); at Ephrin type-A receptor 2, 0.147 µM (active).
Turning to `C[C@@H](c1ccc2nccn2c1)n1nnc2ncc(-c3cnn(C)c3)nc21` [SAVOLITINIB], the Kd in [1], in [2], in assay [3], in assay [4], in assay [5] and in assay [6] was > 30 µM (inactive) each time. For the same molecule, the Kd (in [7]; on Activin receptor type-2B; at Ephrin type-A receptor 2) was > 30 µM (inactive) in each case.
For `N[C@@H]1CCCN(c2c(/C=C3\SC(=O)NC3=O)cccc2-c2ccccc2)C1`, the Kd in assay [1], in assay [2], in [3], in assay [4], in assay [5] and in [6] was > 30 µM (inactive) in each case. Further, the Kd (in assay [7]; on Activin receptor type-2B; on Ephrin type-A receptor 2) was > 30 µM (inactive) throughout.
Take `COc1cc(N2CCC(N3CCN(C)CC3)CC2)ccc1Nc1ncnc(Nc2ccccc2S(=O)(=O)C(C)C)n1` [ASP-3026]: the Kd in [1] is > 30 µM (inactive); in assay [2] it was > 30 µM (inactive); in assay [3] it was > 30 µM (inactive); in assay [4] it was > 30 µM (inactive); in assay [5], > 30 µM (inactive); in [6], 0.494 µM (active). In addition, the values for the Kd (in assay [7]; on Activin receptor type-2B; on Ephrin type-A receptor 2) were > 30 µM (inactive), > 30 µM (inactive) and 1.25 µM (active), respectively.
For `Cc1cc([C@@H](C)Nc2ccccc2C(=O)O)c2nc(N3CCOCC3)cc(=O)n2c1` [AZD-6482], the Kd in assay [1], in [2], in [3], in assay [4], in assay [5] and in assay [6] was > 30 µM (inactive) each time. Further, the Kd (in assay [7]; at Activin receptor type-2B; at Ephrin type-A receptor 2) was > 30 µM (inactive) in each case.
On to `CN1CCC(CNc2ccc3ncc(-c4cccc(OC(F)(F)F)c4)n3n2)CC1` [SGI-1776], for which the Kd in assay [1], in assay [2], in assay [3], in assay [4], in assay [5] and in assay [6] was > 30 µM (inactive) in each case. The Kd (in [7]; at Activin receptor type-2B; at Ephrin type-A receptor 2) was > 30 µM (inactive) in each case.
As for `CC(C)Nc1cc(-c2c[nH]c(C(=O)N[C@H](CO)c3cccc(Cl)c3)c2)c(Cl)cn1` [ULIXERTINIB], the Kd in [1], in [2], in [3], in [4], in assay [5] and in assay [6] was > 30 µM (inactive) throughout. Further, the Kd (in [7]; on Activin receptor type-2B; on Ephrin type-A receptor 2) was > 30 µM (inactive) in each case.
In the case of `O=c1sn(-c2cccc3ccccc23)c(=O)n1Cc1ccccc1` [TIDEGLUSIB], the Kd in assay [1], in assay [2], in [3], in assay [4], in assay [5] and in [6] was > 30 µM (inactive) each time. The Kd (in assay [7]; on Activin receptor type-2B; on Ephrin type-A receptor 2) was > 30 µM (inactive) each time.

The Kd is a measure of binding affinity in units of concentration.
